Reference: article PMC10694654 (The Journal of Biological Chemistry, 2023)

How the values were obtained:
[1] = molecular target: T1, His6-AphAEc (Escherichia coli, UniProt P0AE22); test: DRaCALA competition against […]-cAMP; assay type: binding; conditions: 5 mM AMP (figure legend: 4 mM); 2 nM 32P-cAMP; 40 mM Tris pH 7.5, 100 mM NaCl, 10 mM MgCl2
T1 construct: gene aphA; signal peptide removed, N-terminal His6 kept, pET28a, expressed in E. coli; tetramer by SEC

[2] = molecular target: T2, AphAEc-His6 (Escherichia coli, UniProt P0AE22); test: DRaCALA competition against […]-cAMP; assay type: binding; conditions: 5 mM AMP (figure legend: 4 mM); 2 nM 32P-cAMP; 40 mM Tris pH 7.5, 100 mM NaCl, 10 mM MgCl2
T2 construct: gene aphA; signal peptide removed, C-terminal His6 kept, pET28a, expressed in E. coli; non-natural dimer by SEC

[3] = molecular target: T3, His6-HelHi (Haemophilus influenzae, UniProt P26093); test: pNPP phosphatase assay, A405; assay type: biochemical; conditions: 1 mM pNPP, 15 nM enzyme, pH 8 and 5.6
T3 construct: gene hel; N-terminal His6 kept, pET28a-his-helHi, expressed in E. coli
T3 sequence (P26093 21-274): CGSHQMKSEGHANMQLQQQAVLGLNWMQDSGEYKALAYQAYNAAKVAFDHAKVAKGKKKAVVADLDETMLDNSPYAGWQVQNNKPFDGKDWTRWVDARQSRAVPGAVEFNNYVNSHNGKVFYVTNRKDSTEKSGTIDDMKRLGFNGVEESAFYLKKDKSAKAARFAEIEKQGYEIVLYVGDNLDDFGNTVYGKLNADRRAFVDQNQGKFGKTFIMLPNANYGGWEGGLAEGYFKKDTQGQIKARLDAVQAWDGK

[4] = molecular target: the molecule itself; test: SEC; Superdex 200 Increase 10/300 GL on an AKTA system; size estimated against standard proteins

Molecule	stoichiometry N [4]	other results
Nc1ncnc2c1ncn2[C@@H]1O[C@H](COP(=O)(O)O)[C@@H](O)[C@H]1O [AMP]	–	DRaCALA competition against 32P-cAMP [1]: the binding fractions dropped to nearly zero for AMP; DRaCALA competition against 32P-cAMP [2]: the binding fractions dropped to nearly zero for AMP
O=[N+]([O-])c1ccc(OP(=O)(O)O)cc1 [p-Nitrophenyl Phosphate]	–	pNPP phosphatase assay, A405 [3]: acid phosphatase assay of the His6-HelHi protein
AphAEc-His6 (periplasmic acid phosphatase AphA of Escherichia coli, signal peptide removed, C-terminal His6 tag) (enzyme, UniProt P0AE22 26-237, looked up, AphA, nonspecific periplasmic acid phosphatase of Escherichia coli K-12; signal peptide removed from the construct; pET28a-aphAEc-his; also called AphA-His6; Ct His6-tagged AphAEc; source: E. coli, purified (Ni-NTA, size-exclusion chromatography on Superdex 200 Increase); not shown: His6, C-terminal, kept) SSPSPLNPGTNVARLAEQAPIHWVSVAQIENSLAGRPPMAVGFDIDDTVLFSSPGFWRGKKTFSPESEDYLKNPVFWEKMNNGWDEFSIPKEVARQLIDMHVRRGDAIFFVTGRSPTKTETVSKTLADNFHIPATNMNPVIFAGDKPGQNTKSQWLQDKNIRIFYGDSDNDITAARDVGARGIRILRASNSTYKPLPQAGAFGEEVIVNSEY	2	–
His6-AphAEc (periplasmic acid phosphatase AphA of Escherichia coli, signal peptide removed, N-terminal His6 tag) (enzyme, UniProt P0AE22 26-237, looked up, AphA, nonspecific periplasmic acid phosphatase of Escherichia coli K-12; signal peptide removed from the construct; pET28a-his-aphAEc; also called Nt His6-tagged AphAEc; source: E. coli, purified (Ni-NTA, size-exclusion chromatography on Superdex 200 Increase); not shown: His6, N-terminal, kept) SSPSPLNPGTNVARLAEQAPIHWVSVAQIENSLAGRPPMAVGFDIDDTVLFSSPGFWRGKKTFSPESEDYLKNPVFWEKMNNGWDEFSIPKEVARQLIDMHVRRGDAIFFVTGRSPTKTETVSKTLADNFHIPATNMNPVIFAGDKPGQNTKSQWLQDKNIRIFYGDSDNDITAARDVGARGIRILRASNSTYKPLPQAGAFGEEVIVNSEY	4	–
tagless AphAEc (periplasmic acid phosphatase AphA of Escherichia coli, His6-SUMO tag cleaved off by Ulp1) (enzyme, AphA, nonspecific periplasmic acid phosphatase of Escherichia coli K-12; protein of around 25 kDa on SDS-PAGE; pET24d-his-sumo-aphAEc; linker between SUMO and aphA removed by mutagenesis; probably the mature protein as in m1 and m2; also called cleaved His6-SUMO-AphAEc; source: E. coli, purified; His6-SUMO tag cleaved off with His6-Ulp1, size-exclusion chromatography; not shown: His6-SUMO, …) SPSPLNPGTNVARLAEQAPIHWVSVAQIENSLAGRPPMAVGFDIDDTVLFSSPGFWRGKKTFSPESEDYLKNPVFWEKMNNGWDEFSIPKEVARQLIDMHVRRGDAIFFVTGRSPTKTETVSKTLADNFHIPATNMNPVIFAGDKPGQNTKSQWLQDKNIRIFYGDSDNDITAARDVGARGIRILRASNSTYKPLPQAGAFGEEVIVNSEY	4	–
